Measurements published in patent publication US8431577B2, “Crystalline form of eszopiclone, composition, preparation and uses thereof” (Tianjin Tasly Group Co., Ltd., priority 2008, dated 2013).

How the values were obtained:
[1] = High humidity (25° C., RH 92.5%) stability test; assay type: physicochemical; details: for Content (%) / Related substances (%) Levozopiclone / Related substances (%) Other impurities: High humidity (92.5%), 25° C.; for Weight gain: high humidity 25° C., RH 92.5%
Description: The crystalline form of S-zopiclone of the present invention was introduced into an open and colorless transparent weighing-bottle batch by batch, and placed in a closed vessel (KNO3 saturated solution, RH: 92.5%) for 10 days. The specimens were sampled on the 5th and 10th day respectively to measure their stability in accordance with the key stability-relevant items. Meanwhile, the weight of the tested drug pre-and post test was measured accurately.

[2] = High temperature (60° C.) stability test; details: for Content (%) / Related substances (%) Levozopiclone / Related substances (%) Other impurities: High temperature (60° C.)
Description: The crystalline form of S-zopiclone of the present invention was introduced into an open and colorless transparent weighing-bottle batch by batch, and placed in a thermostat container (60° C.) for 10 days. The specimens were sampled on the 5th and 10th day respectively to measure their stability in accordance with the key stability-relevant items.

[3] = Accelerated stability test; details: 40±2° C., RH 75±5%
Description: The crystalline form of S-zopiclone was packaged in packages simulated the commercial ones, and placed in a thermostat container (temperature: 40±2° C., RH:75±5%) for 6 months. The specimens were sampled on the 1st, 2nd, 3rd and 6th month respectively to measure their stability in accordance with the key stability-relevant items.

[4] = Solubility test (Chinese Pharmacopoeia 2000 general notice); assay type: physicochemical; details: 25±2° C.
Description: Solubility test had been carried out by common solvents in accordance with the method of the GENERAL NOTICE in Chinese Pharmacopoeia (2000 Edition).
Test method: an appropriate amount of fine powder of the crystalline form of S-zopiclone was weighed accurately, into which a certain amount of solvent was added with an accuracy of ±2%. At a temperature of 25±2° C., the solution was shaken violently for 30 seconds, which is repeated at 5-minute intervals. The solubility behavior within 30 minutes had been observed.

## CN1CCN(C(=O)O[C@H]2c3nccnc3C(=O)N2c2ccc(Cl)cn2)CC1 [crystalline form of S-zopiclone, (+)-(S)-(4-methylpiperazine-1-carboxylate)(6-(5-chloropyridinyl-2-yl)-7-carbonyl-6,7-dihydro-5-H-pyrrolo[3,4-b]pyrazin-5-yl ester)]
[1]; day 0
  Content (%): 100.06%
  Related substances (%) Levozopiclone: 0.06%
  Related substances (%) Other impurities: 0.09%
[1]; day 5
  Content (%): 99.86%
  Related substances (%) Levozopiclone: 0.08%
  Related substances (%) Other impurities: 0.11%
[1]; day 10
  Content (%): 99.91%
  Related substances (%) Levozopiclone: 0.07%
  Related substances (%) Other impurities: 0.11%
[1]; 5th day
  Weight gain: 0.07%
[1]; 10th day
  Weight gain: 0.08%
[2]; 10 days of high-temperature (60° C.)
  stability (character, melting point, related substances versus 0th day): stable
[2]; day 0
  Content (%): 100.06%
  Related substances (%) Levozopiclone: 0.06%
  Related substances (%) Other impurities: 0.09%
[2]; day 5
  Content (%): 100.01%
  Related substances (%) Levozopiclone: 0.08%
  Related substances (%) Other impurities: 0.11%
[2]; day 10
  Content (%): 100.12%
  Related substances (%) Levozopiclone: 0.07%
  Related substances (%) Other impurities: 0.12%
[3]; 6 months of accelerated test
  stability (character, melting point, related substances versus 0th day): remained stable
[3]; month 0
  Content (%): 100.06%
  Related substances (%) Levozopiclone: 0.06%
  Related substances (%) Other impurities: 0.09%
[3]; month 1
  Content (%): 100.13%
  Related substances (%) Levozopiclone: 0.07%
  Related substances (%) Other impurities: 0.10%
[3]; month 2
  Content (%): 100.02%
  Related substances (%) Levozopiclone: 0.07%
  Related substances (%) Other impurities: 0.12%
[3]; month 3
  Content (%): 99.91%
  Related substances (%) Levozopiclone: 0.05%
  Related substances (%) Other impurities: 0.12%
[3]; month 6
  Content (%): 99.73%
  Related substances (%) Levozopiclone: 0.06%
  Related substances (%) Other impurities: 0.09%
[4]; acetone, 10 mg sample
  Required amount of the solvent: 2.0 mL
[4]; acetone
  Required amount of the solvent for dissolving 1 g of the sample: 200 mL
  Solubility: slightly soluble
[4]; anhydrous ether, 10 mg sample
  Required amount of the solvent: 90.0 mL
[4]; anhydrous ether
  Required amount of the solvent for dissolving 1 g of the sample: 9000 mL
  Solubility: very slightly soluble
[4]; chloroform, 100 mg sample
  Required amount of the solvent: 0.6 mL
[4]; chloroform
  Required amount of the solvent for dissolving 1 g of the sample: 6 mL
  Solubility: freely soluble
[4]; ethanol, 10 mg sample
  Required amount of the solvent: 15.0 mL
[4]; ethanol
  Required amount of the solvent for dissolving 1 g of the sample: 1500 mL
  Solubility: very slightly soluble
[4]; ethyl acetate, 10 mg sample
  Required amount of the solvent: 6.0 mL
[4]; ethyl acetate
  Required amount of the solvent for dissolving 1 g of the sample: 600 mL
  Solubility: slightly soluble
[4]; hydrochloric acid (0.1 mol/L), 10 mg sample
  Required amount of the solvent: 0.7 mL
[4]; hydrochloric acid (0.1 mol/L)
  Required amount of the solvent for dissolving 1 g of the sample: 70 mL
  Solubility: Soluble
[4]; methanol, 10 mg sample
  Required amount of the solvent: 5.0 mL
[4]; methanol
  Required amount of the solvent for dissolving 1 g of the sample: 500 mL
  Solubility: slightly soluble
[4]; water, 10 mg sample
  Required amount of the solvent: 200 mL
[4]; water
  Required amount of the solvent for dissolving 1 g of the sample: 20000 mL
  Solubility: practically insoluble
